{"source": "patent US20240277693A1", "about": "“A PHARMACEUTICAL PRODUCT CONTAINING TASQUINIMOD AND A METHOD FOR ASSESSING THE PURITY OF SAID PRODUCT” (ACTIVE BIOTECH AB, priority 2021, published 2024)", "type_in_all_cases": "physicochemical", "key": {"[1]": {"assay": "Drug product stability studies (general observations)", "text": "In a drug product, compound I is formed with compound II from hydrolysis of tasquinimod. […] Compound II is further decarboxylated to form compound III.\nCompound III is the decarboxylated species formed from the degradation of compound II.\nThe mechanism for formation of compound IV in a drug product is unknown."}, "[2]": {"assay": "Stability testing of capsules at 25° C./60% RH in water impermeable blister pack", "text": "(§1) In some embodiments, the method disclosed herein comprises storing (keeping) a sample of the pharmaceutical product for a period of time, preferably under selected conditions of temperature and humidity. The amount (or concentration) of tasquinimod and of at least one of compounds I, II, III and IV in the sample may preferably be determined at the beginning or before the storage period and at the end of the storage period. The selected storage conditions may include a temperature in the range of, for example, 20° C. to 40° C., and a relative humidity in the surrounding atmosphere in the range of, for example, 30% to 75%; e.g. 25° C. and 60% RH, or 30° C. and 65% RH, or 35° C. and 70% RH, or 40° C. and 75% RH. The storage period may extend over a time period in the range of, for example, several weeks to several years. For example, the stability testing period (“storage period”) may be 2 weeks, 3 weeks, 1 month, 2 months, 3 months, 4 months, 5 months, 6 months, 9 months, 1 year, 18 months, 2 years, 3 years, 4 years or even 5 years or longer. A shorter storage period may be selected by use of higher storage temperature and/or higher relative humidity (RH). The total amount of a tasquinimod decomposition product in the sample at the end of the storage period may be determined by, for example, HPLC.\nThe batch of capsules manufactured in Example 19 was assessed by determining the amount of tasquinimod and the amount of each one of compounds I, II, III and IV in a sample of the capsules at the end of a 3-month stability testing, whereby the criterion for approving the batch was that the capsules of the sample, at the end of the 3-month stability testing, contain a total amount of compounds I-IV of not more than 5.0% w/w, relative to the amount of tasquinimod in the capsules. The stability testing consisted of keeping the capsules, in a water impermeable blister pack, at 25° C./60% RH. At the end of the stability testing, the capsules contained 0.06% w/w of compound I, less than 0.05% w/w of compound II, 0.10% of compound III and less than 0.05% w/w of compound IV, relative to the amount of tasquinimod (determined to be 0.246 mg/capsule), viz. in total less than 0.26% w/w of compounds I-IV relative to the amount of tasquinimod. Therefore, according to the selected criterion for approval, the batch of capsules was determined to be suitable for distribution.\n(§2) The obtained batch of capsules was subjected to multiple assessments, viz. a first assessment comprising determining the amount of tasquinimod and the amount of compounds I, II, III and IV in a sample of the capsules directly after manufacturing, whereby the selected criterion for approving the batch for distribution was that the capsules of the sample, in a water impermeable blister pack, contain not more than in total 5% w/w of compounds I-IV relative to the amount of tasquinimod, followed by eight further, independent assessments, by determining the amount of tasquinimod and the amount of each one of compounds I, II, III and IV in a sample of the capsules at the end of a period of stability testing (by keeping the capsules, in a water impermeable blister pack, at 25° C./60% RH) of 3, 6, 9, 12, 18, 24, 36 and 48 months, respectively, whereby each time the criterion for approving the batch was that the capsules of the sample, at the end of each period of stability testing, contain a total amount of compounds I-IV of not more than 5.0% w/w, relative to the amount of tasquinimod in the capsules."}, "[3]": {"assay": "Assessment of capsules after manufacture: amount of tasquinimod and of decomposition products", "details": "0 months (after manufacturing)", "text": "as §1\nThe obtained batch of capsules was assessed by determining the amount of tasquinimod and the amount of compound III in a sample of the capsules. The selected criterion for approving the batch was that the capsules of the sample contain not more than 1.0% w/w of compound III relative to the amount of tasquinimod. […] Therefore, according to the selected criterion for approval, the batch of capsules was determined to be suitable for distribution.\nThe obtained batch of capsules was assessed by determining the amount of tasquinimod and the amount of compounds I, II, III and IV in a sample of the capsules. The selected criterion for approving the batch was that the capsules of the sample contain not more than in total 5% w/w of compounds I-IV relative to the amount of tasquinimod. […] Therefore, according to the selected criterion for approval, the batch of capsules was determined to be suitable for distribution.\nas §2"}}, "data": [{"smiles": "COc1cccc2c1c(O)c(Cc1c(O)c3c(OC)cccc3n(C)c1=O)c(=O)n2C", "note": "[Compound IV, 3,3′-methylenebis(4-hydroxy-5-methoxy-1-methylquinolin-2(1H)-one)]", "values": [{"measurement": "change of the amount of the compound in tasquinimod drug product on storage", "setting": "[1]", "result": "increase under accelerated conditions"}, {"measurement": "amount of decomposition product (each of compounds I-IV) in capsules, relative to the amount of tasquinimod", "setting": "[2]; 0.25 mg capsules of Example 19, 18 months", "result": 0.07, "unit": "% w/w"}, {"measurement": "amount of decomposition product (each of compounds I-IV) in capsules, relative to the amount of tasquinimod", "setting": "[2]; 0.25 mg capsules of Example 19, 24 months", "result": 0.10, "unit": "% w/w"}, {"measurement": "amount of decomposition product (each of compounds I-IV) in capsules, relative to the amount of tasquinimod", "setting": "[2]; 0.25 mg capsules of Example 19, 36 months", "result": 0.15, "unit": "% w/w"}, {"measurement": "amount of decomposition product (each of compounds I-IV) in capsules, relative to the amount of tasquinimod", "setting": "[2]; 0.25 mg capsules of Example 19, 48 months", "result": 0.19, "unit": "% w/w"}, {"measurement": "Decomposition products (% w/w), relative to the amount of tasquinimod in capsule", "setting": "[2]; 0.5 mg capsules of Example 28, 3 months", "result": "<0.05", "unit": "% w/w"}, {"measurement": "Decomposition products (% w/w), relative to the amount of tasquinimod in capsule", "setting": "[2]; 0.5 mg capsules of Example 28, 6 months", "result": "<0.05", "unit": "% w/w"}, {"measurement": "Decomposition products (% w/w), relative to the amount of tasquinimod in capsule", "setting": "[2]; 0.5 mg capsules of Example 28, 9 months", "result": "<0.05", "unit": "% w/w"}, {"measurement": "Decomposition products (% w/w), relative to the amount of tasquinimod in capsule", "setting": "[2]; 0.5 mg capsules of Example 28, 12 months", "result": "<0.05", "unit": "% w/w"}, {"measurement": "Decomposition products (% w/w), relative to the amount of tasquinimod in capsule", "setting": "[2]; 0.5 mg capsules of Example 28, 18 months", "result": "<0.05", "unit": "% w/w"}, {"measurement": "Decomposition products (% w/w), relative to the amount of tasquinimod in capsule", "setting": "[2]; 0.5 mg capsules of Example 28, 24 months", "result": 0.06, "unit": "% w/w"}, {"measurement": "Decomposition products (% w/w), relative to the amount of tasquinimod in capsule", "setting": "[2]; 0.5 mg capsules of Example 28, 36 months", "result": 0.09, "unit": "% w/w"}, {"measurement": "Decomposition products (% w/w), relative to the amount of tasquinimod in capsule", "setting": "[2]; 0.5 mg capsules of Example 28, 48 months", "result": 0.11, "unit": "% w/w"}, {"measurement": "Decomposition products (% w/w), relative to the amount of tasquinimod in capsule", "setting": "[2]; 1.0 mg capsules of Example 29, 3 months", "result": "<0.05", "unit": "% w/w"}, {"measurement": "Decomposition products (% w/w), relative to the amount of tasquinimod in capsule", "setting": "[2]; 1.0 mg capsules of Example 29, 6 months", "result": "<0.05", "unit": "% w/w"}, {"measurement": "Decomposition products (% w/w), relative to the amount of tasquinimod in capsule", "setting": "[2]; 1.0 mg capsules of Example 29, 9 months", "result": "<0.05", "unit": "% w/w"}, {"measurement": "Decomposition products (% w/w), relative to the amount of tasquinimod in capsule", "setting": "[2]; 1.0 mg capsules of Example 29, 12 months", "result": "<0.05", "unit": "% w/w"}, {"measurement": "Decomposition products (% w/w), relative to the amount of tasquinimod in capsule", "setting": "[2]; 1.0 mg capsules of Example 29, 18 months", "result": "<0.05", "unit": "% w/w"}, {"measurement": "Decomposition products (% w/w), relative to the amount of tasquinimod in capsule", "setting": "[2]; 1.0 mg capsules of Example 29, 24 months", "result": "<0.05", "unit": "% w/w"}, {"measurement": "Decomposition products (% w/w), relative to the amount of tasquinimod in capsule", "setting": "[2]; 1.0 mg capsules of Example 29, 36 months", "result": "<0.05", "unit": "% w/w"}, {"measurement": "Decomposition products (% w/w), relative to the amount of tasquinimod in capsule", "setting": "[2]; 1.0 mg capsules of Example 29, 48 months", "result": "<0.05", "unit": "% w/w"}, {"measurement": "Decomposition products (% w/w), relative to the amount of tasquinimod in capsule", "setting": "[3]; 0.5 mg capsules of Example 28", "result": "<0.05", "unit": "% w/w"}, {"measurement": "Decomposition products (% w/w), relative to the amount of tasquinimod in capsule", "setting": "[3]; 1.0 mg capsules of Example 29", "result": "<0.05", "unit": "% w/w"}]}]}
